Entries after “also recorded” stand apart in the source; their conditions may differ. Where two headings read alike, the source gives them in different places. *1 amine or outer side, *2 acyl side, *3 side chain or, on linkers, in order; H or OH if unused. Where a SMILES comes first, the peptide text is derived from it. Bridges are numbered along the chain shown (N, C = ends). Roman numbers before positions name the chains, in order. [ ]: non-standard residue; d: D form. Actinocin(9to1) = Cc1c2oc3c(C)ccc(C(=O)[*:1])c3nc-2c(C(=O)[*:2])c(N)c1=O; NMeV = CN[C@H](C(=O)O)C(C)C; Sar = CNCC(=O)O
Experiments:
aSynL:total ratio [1] = experiment: In vivo I-Dopa treatment of DAT-Cre/Dicer mice, aSynL:total ratio in brain tissue by RT-qPCR; design: species or system mouse
Method: (§1) 2-month old DAT-Cre/Dicer^flox/flox and DAT-Cre/Dicer^flox/+24 or forty-weeks old male PAC-Tg (SNCA)+/−;Snca+/− (a gift from Dr. Robert L. Nussbaum, University of California San Francisco, ^25) received 20 mg/kg I-Dopa with 12 mg/kg benserazide (or PBS vehicle only) by intraperitoneal injection daily for 5 days. […] 1 hour after the last dose, mice were anesthetized by inhaled isoflurane and the brains rapidly removed. The prefrontal cortex, striatum and midbrain were dissected out and stored at −80° C.
(§2) RT-qPCR analyses were performed as described ^60.

human aSyn protein = experiment: In vivo I-Dopa treatment of aSyn PAC transgenic mice, aSyn protein in brain tissue by ELISA; design: species or system mouse; settings: 20 mg/kg i.p. daily for 5 days
Method: (§3) Mitochondria were purified using Qproteome Mitochondria Isolation Kit (Qiagen) and membrane fractions were isolated using Subcellular Protein Fractionation Kit (Pierce) following manufacturers' instructions. Human aSyn protein levels were determined using the aSyn Human ELISA kit (Invitrogen). Absorbance was read on a VersaMax ELISA Microplate Reader (Molecular Devices, Inc) at 450 nm. The amount of human aSyn was normalized to total cellular protein as determined with the DC Protein Assay Reagent kit (Bio-Rad). Mitochondrial preparations were validated by Western blot analysis for Tom20 and synaptophysin (see FIG. 12d).
as §1

aSynL:total ratio [2] = experiment: aSynL:total ratio by RT-qPCR in rat primary cortical cultures; format: cell-based
Method: (§4) Cultures of rodent neurons were prepared as described in ^53. Cells were maintained in vitro for 3-5 days before drug treatments or transfection using Lipofectamine 2000 (Iinvitrogen) following manufacturer's instructions.
RT-qPCR analyses were performed as described ^60. The human aSynL:Total mRNA ratio was quantified in terms of AACt ^60 using primer pair Lh for the human long form (HaSynLfw [[…]] SEQ ID NO: 13, and HaSynLry [[…]]) SEQ ID NO: 14 and primer pair Th for human total (HaSynTfw [[…]] SEQ ID NO: 15 and HaSynTrv [[…]] SEQ ID NO: 16). For analysis of either mouse or rat, primer pairs mrL (RaSynLfw [[…]] SEQ ID NO: 17 and RaSynLrv [[…]] SEQ ID NO: 18) and mrT (RaSynTfw [[…]] SEQ ID NO: 19, RaSynTry [[…]] SEQ ID NO: 20) were used.

aSynL:total ratio [3] = experiment: aSynL:total ratio in total RNA of SH-SY5Y cells by RT-qPCR (transcription inhibition); format: cell-based, human
aSyn protein [4] = experiment: aSyn protein by ELISA in mitochondrial and membrane fractions of SH-SY5Y cells; format: cell-based, human; settings: 100 μM for 48 h
Method: as §3

aSyn translation = experiment: Endogenous aSyn protein by ELISA normalized to total aSyn mRNA in SH-SY5Y cells (aSyn translation); format: cell-based, human; settings: dopamine 100 uM for 24 h
Excerpt: Mitochondria were purified using Qproteome Mitochondria Isolation Kit (Qiagen) and membrane fractions were isolated using Subcellular Protein Fractionation Kit (Pierce) following manufacturers' instructions. […] Absorbance was read on a VersaMax ELISA Microplate Reader (Molecular Devices, Inc) at 450 nm. The amount of human aSyn was normalized to total cellular protein as determined with the DC Protein Assay Reagent kit (Bio-Rad). Mitochondrial preparations were validated by Western blot analysis for Tom20 and synaptophysin (see FIG. 12d). RT-qPCR analyses were performed as described ^60. […] NO: 17 and […] NO: 18) […] NO: 19, […] NO: 20) were used. The human SH-SY5Y neuroblastoma cell line (ATCC) was cultured following the distributor's instructions. Cells were plated at a density of 4×10^5 cells per well (in 48-well plates) in wells coated with 0.1% gelatin (Specialty Media, Millipore) 24 hours prior to transfection. Transfections were performed with Lipofectamine 2000 reagent (Invitrogen) following the manufacturer's instructions. The human HEK-293T cell line (ATCC) was cultured in DMEM (Invitrogen) supplemented with 10% FBS (Invitrogen). Cells were plated at a density of 8×10^3 cells per well (96-well plates). […] Luciferase and Renilla activities were measured 24 h or 48 h after transfection using Dual-Glo luciferase assay system (Promega).

human aSyn 3′UTR = experiment: Firefly luciferase-aSyn 3′UTR reporter assay in SH-SY5Y cells; format: cell-based; settings: for dopamine-mediated increase in luciferase accumulation under VMAT2 overexpression: SH-SY5Y co-transfected with VMAT2 vector; for luciferase expression, Firefly/Renilla ratio, short aSyn 3′UTR vector: 100 μM for 24 hrs
Method: The human SH-SY5Y neuroblastoma cell line (ATCC) was cultured following the distributor's instructions. Cells were plated at a density of 4×10^5 cells per well (in 48-well plates) in wells coated with 0.1% gelatin (Specialty Media, Millipore) 24 hours prior to transfection. Transfections were performed with Lipofectamine 2000 reagent (Invitrogen) following the manufacturer's instructions. The human HEK-293T cell line (ATCC) was cultured in DMEM (Invitrogen) supplemented with 10% FBS (Invitrogen). Cells were plated at a density of 8×10^3 cells per well (96-well plates). Mir-34b-3p precursor, specific Anti-miR Mir-34b-3p inhibitor, Anti-miR Negative Control #1, and Pre-miR Negative Control #1 were purchased from Ambion. Cells were co-transfected with luciferase reporter plasmids and a small RNA or inhibitor (as indicated) using siPort NeoFx reagent (Ambion) following manufacturer's protocol. Luciferase and Renilla activities were measured 24 h or 48 h after transfection using Dual-Glo luciferase assay system (Promega).

aSynL:total ratio [5] = experiment: In situ hybridization for aSyn CDS and long 3′UTR in primary cortical neuron cultures from aSyn PAC transgenic mice; format: cell-based; settings: 100 μM for 24 h, DIV 4 PAC mouse cortical neurons
Method: as §4
In situ hybridization were performed using QuantiGene® ViewRNA ISH Cell Assay (Panomics) following manufacturer's instructions, with QG ViewRNA TYPE 8 Probe Sets (Panomics) designed to target either human aSyn CDS sequences (bases 264-634 from NM_000345.3; Panomics) or to target human aSynL 3′UTR sequences (bases 1180-1760 from NM_000345.3).

aSyn protein [6] = experiment: Colocalization of aSyn and Mitotracker in primary cortical neuron cultures from PAC transgenic mice; format: cell-based; settings: primary mouse cortical neurons, 100 μM for 24 h
Method: as §4
Immunostainings were done as previously described ^59 with Rabbit anti-aSyn (Santa Cruz, 1:200) or Mouse anti-Synaptophysin (Millipore, 1:100) as primary antibodies, and Alexa 555 goat anti-rabbit IgG or Alexa 633 goat anti-mouse IgG (Invitrogen) secondary antibodies. MitoTracker-Orange (Invitrogen, 1:10000) was added into media for 15-20 min in living cell culture. Collocalization analyses were done in R using EBImage package; using Pearson's correlation coefficient.

aSynL:total ratio [7] = test system: aSynL:total ratio
Method: Total RNA was isolated using a miRNeasy kit (Qiagen) and nascent RNA was purified using the Click-iT® Nascent RNA Capture Kit (Invitrogen) following manufacturer's instructions; total and nascent RNA were then subjected to RT-qPCR analysis as below.
as §2

aSynL:total ratio [8] = settings: GFP-aSyn wild-type 1.1 kb 3′UTR plasmid, lysed after 48 h
Method: Northern Blots were performed using the NorthernMax kit (Ambion) following manufacturer's instructions. 10 μg of total RNA was purified using miRNeasy kit (Qiagen) and loaded per lane.

aSyn protein [9] = experiment: Total endogenous aSyn protein by ELISA in SH-SY5Y cells; format: cell-based, human; settings: 100 μM for 48 h
Method: as §3

[10] = rat primary cortical neurons, RT-qPCR, dopamine, picrotoxin, muscimol, NMDA 100 μM, kainic acid 50 μM, vs vehicle

## N[C@@H](Cc1ccc(O)c(O)c1)C(=O)O [I-Dopa]
aSynL:total ratio [1]; 2 month-old control DAT-Cre/Dicer flox/+ mice, 20 mg/kg i.p. daily for 5 days with 12 mg/kg benserazide
  aSynL:total ratio in midbrain tissue: significantly increased
aSynL:total ratio [1]; DAT-Cre/Dicer flox/flox mice deficient in mDNs, 20 mg/kg i.p. daily for 5 days
  aSynL:total ratio in midbrain tissue: did not alter
aSynL:total ratio [1]; such as striatal tissue, 20 mg/kg i.p. daily for 5 days
  aSynL:total ratio in brain regions other than midbrain: not apparent
Human aSyn protein
  human aSyn protein in midbrain (ELISA, normalized to total protein): significantly increased
  human aSyn protein in other brain regions such as striatum or cortex: not

## CN[C@H](CC(=O)O)C(=O)O [NMDA]
aSynL:total ratio [2]; [10]
  aSynL:total ratio: did not appear to impact

## Cc1c2oc3c(C)ccc(C(=O)N[C@@H]4C(=O)N[C@H](C(C)C)C(=O)N5CCC[C@H]5C(=O)N(C)CC(=O)N(C)[C@@H](C(C)C)C(=O)O[C@@H]4C)c3nc-2c(C(=O)N[C@@H]2C(=O)N[C@H](C(C)C)C(=O)N3CCC[C@H]3C(=O)N(C)CC(=O)N(C)[C@@H](C(C)C)C(=O)O[C@@H]2C)c(N)c1=O [actinomycin D] (I: T[dV]P[Sar][NMeV] / II: T[dV]P[Sar][NMeV]; ester I:1-I:C, II:1-II:C; linker I:N-II:N via Actinocin(9to1))
aSynL:total ratio [3]; actinomycin D 10 μg/mL with dopamine 100 μM, total RNA, 12 or 24 h
  dopamine-mediated increase in aSynL:total ratio: prevented the increase

## NCCc1ccc(O)c(O)c1 [dopamine]
aSyn protein [4]
  aSyn content within total cell membrane fraction relative to whole cell lysate (ELISA): decreased; also recorded: reduction
  aSyn protein content in mitochondrial preparations relative to whole cell aSyn content (ELISA): increased proportion; also recorded: preferentially increased
aSyn translation
  aSyn translation: endogenous aSyn protein (ELISA) normalized to total aSyn mRNA: significant increase
Human aSyn 3′UTR; dopamine 100 μM for 48 h
  dopamine-mediated increase in luciferase accumulation under VMAT2 overexpression: suppressed
Human aSyn 3′UTR; dopamine 100 μM for 48 h, listed as Dopamine
  dopamine-mediated increase in luciferase accumulation under VMAT2 overexpression: cancelled
Human aSyn 3′UTR; SH-SY5Y, 100 μM for 24 h
  luciferase expression, Firefly/Renilla ratio, 1.1 kb human aSyn 3′UTR vector: increased
Human aSyn 3′UTR; SH-SY5Y
  luciferase expression, Firefly/Renilla ratio, short aSyn 3′UTR vector: not observed
Human aSyn 3′UTR; SH-SY5Y, listed as Dopamine
  luciferase expression, Firefly/Renilla ratio, short aSyn 3′UTR vector: do not influence
Human aSyn 3′UTR; SH-SY5Y, vector control, dopamine 100 μM for 48 h
  aSyn 3′UTR mediated translation (luciferase): potentiates
aSynL:total ratio [5]
  aSynL:total ratio (ratio of in situ hybridization signals): increase
aSyn protein [6]
  fraction of aSyn protein that colocalized with mitochondria (Mitotracker): significantly increased
aSynL:total ratio [7]; 100 μM dopamine exclusively during the pulse-labeling period
  aSynL:total ratio among the labeled RNA population: robust and durable increase
aSynL:total ratio [7]; 100 μM dopamine exclusively post-labeling (chase)
  aSynL:total ratio among the labeled RNA population: did not produce any effect
aSynL:total ratio [7]; SH-SY5Y, dopamine
  treatment time after which the increase of the aSynL:total ratio is detectable in the nascent RNA population: ≤ 4 h
  treatment time for the dopamine effect on aSynL:total ratio to become detectable in the total RNA population: at least 16 hrs
aSynL:total ratio [7]; dopamine 100 μM with EU for 4 h, captured EU-labeled RNA
  increase in aSynL:total ratio in nascent RNA: robustly observed
aSynL:total ratio [7]; dopamine 100 μM with EU for 4 h, total RNA
  increase in aSynL:total ratio in total RNA: not in total RNA
aSynL:total ratio [2]; dopamine 10 μM for 24 hrs, cells transfected with vector encoding DAT
  aSynL:total ratio: significantly increased the sensitivity
aSynL:total ratio [2]; low extracellular dopamine 10 μM for 24 h, no DAT overexpression
  aSynL:total ratio: resistant
aSynL:total ratio [2]; [10]
  aSynL:total ratio: increase; also recorded: significantly increased
aSynL:total ratio [3]; SH-SY5Y, dopamine 100 μM, 24 h, no actinomycin D
  aSynL:total ratio in total RNA: increase
aSynL:total ratio [8]
  aSynL (1070 nt 3′UTR) transcript relative to shorter (300 nt 3′UTR) transcript, Northern blot: increase
aSyn protein [9]
  endogenous aSyn protein levels (ELISA, normalized to total protein): significantly increased

## C=C(C)[C@H]1CN[C@H](C(=O)O)[C@H]1CC(=O)O [kainic acid]
aSynL:total ratio [2]; [10]
  aSynL:total ratio: did not appear to impact
